What was measured:
[1] = tested on: PC3 (human prostate cancer cells); test: MTT cytotoxicity, PC3 cells; format: cell-based; conditions: 72 h exposure, three independent experiments, read-out: Cytotoxic activity IC50 (95% CI) PC3
Experimental: (§1) Compounds were evaluated for antitumor activity in cell culture in vitro using several human cancer cell lines obtained from the National Cancer Institute, NCI (Bethesda, MD, USA). […] The L929 cells were cultivated under standard conditions in DMEM with Earle’s salts. […] At the end of the incubation time (72 h), the plates were centrifuged and the medium was replaced by fresh medium (200 μL) containing 0.5 mg/mL MTT. After 3 h, the MTT formazan product was dissolved in DMSO (150 μL) and the absorbance was measured using a multiplate reader (Spectra Count, Packard, ON, Canada). The impact of compounds on cell proliferation was quantified as the percentage of control absorbance of the reduced dye at 550 nm. All cell culture based studies were performed in triplicate. All cells were mycoplasma-free.

[2] = tested on: HL-60 (human promyelocytic leukemia cells); test: MTT cytotoxicity, HL-60 cells; format: cell-based; conditions: 72 h exposure, three independent experiments, read-out: Cytotoxic activity IC50 (95% CI) HL-60
Experimental: as §1

[3] = tested on: SF295 (human glioblastoma cells); test: MTT cytotoxicity, SF295 cells; format: cell-based; conditions: 72 h exposure, three independent experiments, read-out: Cytotoxic activity IC50 (95% CI) SF295
Experimental: as §1

[4] = tested on: NCIH-460 (human lung cells); test: MTT cytotoxicity, NCIH-460 cells; format: cell-based; conditions: 72 h exposure, three independent experiments, read-out: Cytotoxic activity IC50 (95% CI) NCIH-460
Experimental: as §1

[5] = tested on: L929 (murine fibroblasts normal cells); test: MTT cytotoxicity, L929 normal cells; format: cell-based, mouse; conditions: normal cell line, 72 h exposure, three independent experiments, read-out: Cytotoxic activity IC50 (95% CI) L929
Experimental: as §1

[6] = tested on: HCT-116 (human colon carcinoma cells); test: MTT cytotoxicity, HCT-116 cells; format: cell-based; conditions: 72 h exposure, three independent experiments, read-out: Cytotoxic activity IC50 (95% CI) HCT-116
Experimental: as §1

**Q.** “3-Bromo-2,2-dimethyl-4-(4-((p-tolylselanyl)methyl)-1H-1,2,3-triazol-1-yl)-3,4-dihydro-2H-benzo[h]-chromene-5,6-dione [Compound 21]” was tested. Which IC50 [1] did it give?
**A.** 1770 nM

**Q.** What about the IC50 [2] of the same substance?
**A.** 1000 nM

**Q.** What about the IC50 [3] of the same substance?
**A.** 1630 nM

**Q.** And the IC50 [4]?
**A.** 1490 nM

**Q.** And the IC50 [5]?
**A.** 1280 nM

**Q.** And the IC50 [6]?
**A.** > 8000 nM
